Key:
Format in all cases: in vivo
transplanted rice plant = assay: Test Example 1: effect on crop, application before weed generation in submerged conditions (symbol a); settings: application herbicide amount 320 g/ha
How it was run: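 Rice at 2.5 leaf stage transplanted into submerged soil (4 cm depth) sown with three weed species; herbicide applied before weed emergence.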

[1] = tested on: Echinochloa crus-galli var. crus-galli; assay: Test Example 3: herbicidal effect by foliage application, Wagner pot (symbol H); settings: application herbicide amount 320 g/ha
How it was run: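 In a shallow-flooded alluvial soil system held at 25–30 °C, plants including rice grew for 14 days and were then sprayed over the foliage with emulsion diluted to a fixed herbicide amount. Visual rating followed at 3 weeks.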

Alopecurus myosuroides [2] = assay: Test Example 4: herbicidal effect by soil treatment (symbol J); settings: application herbicide amount 320 g/ha
How it was run: (§1)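 Seeds were sown in sterilized diluvial soil, covered with about 1.5 cm of soil, and the soil surface was sprayed with a water-diluted emulsion of the compound at a predetermined rate. Plants grew in a greenhouse at 25° C. to 30° C.; effects were scored visually 3 weeks after application.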

Abutilon theophrasti = assay: Test Example 4: herbicidal effect by soil treatment (symbol M); settings: application herbicide amount 320 g/ha
How it was run: as §1

Chenopodium album [3] = assay: Test Example 4: herbicidal effect by soil treatment (symbol O); settings: application herbicide amount 320 g/ha
How it was run: as §1

Stellaria media = assay: Test Example 4: herbicidal effect by soil treatment (symbol P); settings: application herbicide amount 320 g/ha
How it was run: as §1

Galium spurium = assay: Test Example 4: herbicidal effect by soil treatment (symbol Q); settings: application herbicide amount 320 g/ha
How it was run: as §1

corn [4] = assay: Test Example 4: effect on crop by soil treatment (symbol c); settings: application herbicide amount 320 g/ha
How it was run: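 Crop seed is sown in spots together with several weed species in a box of sterilized diluvial soil. It is covered by about 1.5 cm of soil and kept in a greenhouse held between 25° C. and 30° C.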

[5] = tested on: Echinochloa crus-galli var. crus-galli; assay: Test Example 5: herbicidal effect by foliage application, plastic box (symbol H); settings: 320 g/ha, 3 weeks after application
How it was run: (§2)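 Emulsion formulation, diluted with water to the intended rate, was applied uniformly to leaves by small sprayer. Recipients were 14-day greenhouse-grown seedlings (25° C. to 30° C.). Assessment followed at 3 weeks.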

Alopecurus myosuroides [6] = assay: Test Example 5: herbicidal effect by foliage application, plastic box (symbol J); settings: 320 g/ha, 3 weeks after application
How it was run: as §2

Lolium multiflorum Lam. = assay: Test Example 5: herbicidal effect by foliage application, plastic box (symbol K); settings: 320 g/ha, 3 weeks after application
How it was run: as §2

Apera spica-venti = assay: Test Example 5: herbicidal effect by foliage application, plastic box (symbol L); settings: 320 g/ha, 3 weeks after application
How it was run: as §2

Amaranthus retroflexus = assay: Test Example 5: herbicidal effect by foliage application, plastic box (symbol N); settings: 320 g/ha, 3 weeks after application
How it was run: as §2

Chenopodium album [7] = assay: Test Example 5: herbicidal effect by foliage application, plastic box (symbol O); settings: 320 g/ha, 3 weeks after application
How it was run: as §2

Veronica persica = assay: Test Example 5: herbicidal effect by foliage application, plastic box (symbol R); settings: 320 g/ha, 3 weeks after application
How it was run: as §2

corn [8] = assay: Test Example 5: effect on crop by foliage application, plastic box (symbol c); settings: 320 g/ha, 3 weeks after application
How it was run: (§3)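 Foliage-application test plants come from spot sowing in sterilized diluvial soil under a soil layer of about 1.5 cm, grown at 25° C. to 30° C. in a greenhouse.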

soybean = assay: Test Example 5: effect on crop by foliage application, plastic box (symbol d); settings: 320 g/ha, 3 weeks after application
How it was run: as §3

| SMILES | Effect grade on crop, a: transplanted rice plant (transplanted rice plant) | herbicidal effect on H (Echinochloa crus-galli var. crus-galli), grade 0-5 [1] | J: Alopecurus myosuroides, herbicidal effect grade (Alopecurus myosuroides [2]) | M: Abutilon theophrasti, herbicidal effect grade (Abutilon theophrasti) | O: Chenopodium album, herbicidal effect grade (Chenopodium album [3]) | P: Stellaria media, herbicidal effect grade (Stellaria media) | Q: Galium spurium, herbicidal effect grade (Galium spurium) | c: corn, effect on crop grade (corn [4]) | H: Echinochloa crus-galli var. crus-galli, herbicidal effect (criteria of Test Example 1) [5] | J: Alopecurus myosuroides, herbicidal effect (criteria of Test Example 1) (Alopecurus myosuroides [6]) | K: Lolium multiflorum Lam., herbicidal effect (criteria of Test Example 1) (Lolium multiflorum Lam.) | L: Apera spica-venti, herbicidal effect (criteria of Test Example 1) (Apera spica-venti) | N: Amaranthus retroflexus, herbicidal effect (criteria of Test Example 1) (Amaranthus retroflexus) | O: Chenopodium album, herbicidal effect (criteria of Test Example 1) (Chenopodium album [7]) | R: Veronica persica, herbicidal effect (criteria of Test Example 1) (Veronica persica) | c: corn, effect on crop (criteria of Test Example 1) (corn [8]) | d: soybean, effect on crop (criteria of Test Example 1) (soybean) |
| --- | --- | --- | --- | --- | --- | --- | --- | --- | --- | --- | --- | --- | --- | --- | --- | --- | --- |
| CON=C(C)CC1CC(O)=C(c2c(C)cc(-n3cccn3)cc2C)C1=O (centres unmarked) [6-073] | 5 (Herbicidal ratio of 90% or more (almost completely withered)) | 5 (Herbicidal ratio of 90% or more (almost completely withered)) | 2 (Herbicidal ratio of 20% or higher and lower than 40%) | 0 (Herbicidal ratio of 5% or lower (almost no effect)) | 0 (Herbicidal ratio of 5% or lower (almost no effect)) | 0 (Herbicidal ratio of 5% or lower (almost no effect)) | 0 (Herbicidal ratio of 5% or lower (almost no effect)) | 3 (Herbicidal ratio of 40% or higher and lower than 70%) | 5 (Herbicidal ratio of 90% or more (almost completely withered)) | 5 (Herbicidal ratio of 90% or more (almost completely withered)) | 5 (Herbicidal ratio of 90% or more (almost completely withered)) | 3 (Herbicidal ratio of 40% or higher and lower than 70%) | 0 (Herbicidal ratio of 5% or lower (almost no effect)) | 3 (Herbicidal ratio of 40% or higher and lower than 70%) | 3 (Herbicidal ratio of 40% or higher and lower than 70%) | 4 (Herbicidal ratio of 70% or higher and lower than 90%) | 0 (Herbicidal ratio of 5% or lower (almost no effect)) |
| CON=C(C)CC1CC(O)=C(c2c(C)cc(-n3cncn3)cc2C)C1=O (centres unmarked) [6-074] | 2 (Herbicidal ratio of 20% or higher and lower than 40%) | 4 (Herbicidal ratio of 70% or higher and lower than 90%) | 0 (Herbicidal ratio of 5% or lower (almost no effect)) | 0 (Herbicidal ratio of 5% or lower (almost no effect)) | 0 (Herbicidal ratio of 5% or lower (almost no effect)) | 0 (Herbicidal ratio of 5% or lower (almost no effect)) | 0 (Herbicidal ratio of 5% or lower (almost no effect)) | 0 (Herbicidal ratio of 5% or lower (almost no effect)) | 3 (Herbicidal ratio of 40% or higher and lower than 70%) | 0 (Herbicidal ratio of 5% or lower (almost no effect)) | 2 (Herbicidal ratio of 20% or higher and lower than 40%) | 0 (Herbicidal ratio of 5% or lower (almost no effect)) | 0 (Herbicidal ratio of 5% or lower (almost no effect)) | 0 (Herbicidal ratio of 5% or lower (almost no effect)) | 0 (Herbicidal ratio of 5% or lower (almost no effect)) | 0 (Herbicidal ratio of 5% or lower (almost no effect)) | 0 (Herbicidal ratio of 5% or lower (almost no effect)) |
| CON=C(C)CC1CC(O)=C(c2c(C)cc(C)cc2SC)C1=O (centres unmarked) [6-075] | 3 (Herbicidal ratio of 40% or higher and lower than 70%) | 3 (Herbicidal ratio of 40% or higher and lower than 70%) | 4 (Herbicidal ratio of 70% or higher and lower than 90%) | 0 (Herbicidal ratio of 5% or lower (almost no effect)) | 0 (Herbicidal ratio of 5% or lower (almost no effect)) | 0 (Herbicidal ratio of 5% or lower (almost no effect)) | 0 (Herbicidal ratio of 5% or lower (almost no effect)) | 0 (Herbicidal ratio of 5% or lower (almost no effect)) | 2 (Herbicidal ratio of 20% or higher and lower than 40%) | 5 (Herbicidal ratio of 90% or more (almost completely withered)) | 5 (Herbicidal ratio of 90% or more (almost completely withered)) | 5 (Herbicidal ratio of 90% or more (almost completely withered)) | 0 (Herbicidal ratio of 5% or lower (almost no effect)) | 0 (Herbicidal ratio of 5% or lower (almost no effect)) | 0 (Herbicidal ratio of 5% or lower (almost no effect)) | 4 (Herbicidal ratio of 70% or higher and lower than 90%) | 0 (Herbicidal ratio of 5% or lower (almost no effect)) |
| CON=C(C)CC1CC(O)=C(c2c(C)cc(Br)cc2OC)C1=O (centres unmarked) [6-076, 2-(4-bromo-2-methoxy-6-methylphenyl)-3-hydroxy-5-{2-(methoxyimino)propyl}cyclopent-2-enone] | 5 (Herbicidal ratio of 90% or more (almost completely withered)) | 5 (Herbicidal ratio of 90% or more (almost completely withered)) | 0 (Herbicidal ratio of 5% or lower (almost no effect)) | 5 (Herbicidal ratio of 90% or more (almost completely withered)) | 0 (Herbicidal ratio of 5% or lower (almost no effect)) | 0 (Herbicidal ratio of 5% or lower (almost no effect)) | 0 (Herbicidal ratio of 5% or lower (almost no effect)) | 5 (Herbicidal ratio of 90% or more (almost completely withered)) | 5 (Herbicidal ratio of 90% or more (almost completely withered)) | 5 (Herbicidal ratio of 90% or more (almost completely withered)) | 5 (Herbicidal ratio of 90% or more (almost completely withered)) | 5 (Herbicidal ratio of 90% or more (almost completely withered)) | 1 (Herbicidal ratio of 5% or higher and lower than 20%) | 2 (Herbicidal ratio of 20% or higher and lower than 40%) | 2 (Herbicidal ratio of 20% or higher and lower than 40%) | 5 (Herbicidal ratio of 90% or more (almost completely withered)) | 1 (Herbicidal ratio of 5% or higher and lower than 20%) |

Source: patent US11000033B2, “Ketone or oxime compound, and herbicide” (NISSAN CHEMICAL CORPORATION, priority 2014, dated 2021)
